Data published in ChEMBL document CHEMBL3992542, “Synthesis of cholesteryl doxorubicin and its anti-cancer activity” (Bioorg Med Chem Lett, 2017).
Calls of active or inactive are those of the source. No cut-off for these calls is given here.

Legend:
MDA-MB-231 [1] = assay: Cytotoxicity against human MDA-MB-231 cells assessed as decrease in cell viability at 10 uM treated for 2 hrs measured after 48 hrs by MTT assay; type: functional, cell-based
HeLa [2] = assay: Cytotoxicity against human HeLa cells assessed as decrease in cell viability at 5 uM treated for 2 hrs measured after 48 hrs by MTT assay; type: functional, cell-based
A549 [3] = assay: Cytotoxicity against human A549 cells assessed as decrease in cell viability at 10 uM treated for 2 hrs measured after 48 hrs by MTT assay; type: functional, cell-based
MCF7 [4] = assay: Cytotoxicity against human MCF7 cells assessed as decrease in cell viability at 5 uM treated for 2 hrs measured after 48 hrs by MTT assay; type: functional, cell-based
[5] = Drug uptake in human MDA-MB-231 cells at 5 uM after 24 hrs by flow cytometric analysis; type: ADME, cell-based; conditions: mda-mb-231, 24 h
MDA-MB-231 [6] = assay: Cytotoxicity against human MDA-MB-231 cells assessed as decrease in cell viability treated for 2 hrs measured after 48 hrs by MTT assay; type: functional, cell-based
[7] = Drug uptake in human HeLa cells at 5 uM after 24 hrs by flow cytometric analysis; type: ADME, cell-based
HeLa [8] = assay: Cytotoxicity against human HeLa cells assessed as decrease in cell viability treated for 2 hrs measured after 48 hrs by MTT assay; type: functional, cell-based
MCF7 [9] = assay: Cytotoxicity against human MCF7 cells assessed as decrease in cell viability treated for 2 hrs measured after 48 hrs by MTT assay; type: functional, cell-based
A549 [10] = assay: Cytotoxicity against human A549 cells assessed as decrease in cell viability treated for 2 hrs measured after 48 hrs by MTT assay; type: functional, cell-based
[11] = Drug uptake in nucleus of human A549 cells at 5 uM after 2 hrs by fluorescence microscopic method; type: ADME, cell-based; conditions: a549, 2 h
[12] = Drug uptake in human MDA-MB-231 cells at 5 uM after 2 hrs by flow cytometric analysis; type: ADME, cell-based; conditions: mda-mb-231, 2 h
[13] = Drug uptake in nucleus of human A549 cells at 5 uM after 24 hrs by fluorescence microscopic method; type: ADME, cell-based; conditions: a549, 24 h
[14] = Drug uptake in human HeLa cells at 5 uM after 2 hrs by flow cytometric analysis; type: ADME, cell-based
[15] = Drug uptake in nucleus of human HeLa cells at 5 uM after 2 hrs by fluorescence microscopic method; type: ADME, cell-based
[16] = Drug uptake in nucleus of human HeLa cells at 5 uM after 24 hrs by fluorescence microscopic method; type: ADME, cell-based
[17] = Drug uptake in nucleus of human MDA-MB-231 cells at 5 uM after 24 hrs by fluorescence microscopic method; type: ADME
[18] = Drug uptake in nucleus of human MDA-MB-231 cells at 5 uM after 2 hrs by fluorescence microscopic method; type: ADME
[19] = Drug uptake in cytoplasm of human HeLa cells at 5 uM after 2 hrs by fluorescence microscopic method; type: ADME, cell-based
[20] = Drug uptake in cytoplasm of human A549 cells at 5 uM after 2 hrs by fluorescence microscopic method; type: ADME, cell-based; conditions: a549, 2 h
[21] = Drug uptake in cytoplasm of human MDA-MB-231 cells at 5 uM after 2 hrs by fluorescence microscopic method; type: ADME

SMILES | Activity (MDA-MB-231 [1]) | Activity (HeLa [2]) | Activity (A549 [3]) | Activity (MCF7 [4]) | Drug uptake [5] | IC50 (MDA-MB-231 [6]) [µM] | Drug uptake [7] | IC50 (HeLa [8]) [µM] | IC50 (MCF7 [9]) [µM] | IC50 (A549 [10]) [µM] | Drug uptake [13] | Drug uptake [16] | Drug uptake [17] | further results
COc1cccc2c1C(=O)c1c(O)c3c(c(O)c1C2=O)C[C@@](O)(C(=O)CO)C[C@@H]3O[C@H]1C[C@H](NC(=O)CCC(=O)NCCCNC(=O)O[C@H]2CC[C@@]3(C)C(=CC[C@H]4[C@@H]5CC[C@H]([C@H](C)CCCC(C)C)[C@@]5(C)CC[C@@H]43)C2)[C@H](O)[C@H](C)O1 | inactive | inactive | inactive | inactive | – | – | – | – | – | – | – | – | – | –
COc1cccc2c1C(=O)c1c(O)c3c(c(O)c1C2=O)C[C@@](O)(C(=O)COC(=O)CCC(=O)NCCCNC(=O)O[C@H]1CC[C@@]2(C)C(=CC[C@H]4[C@@H]5CC[C@H]([C@H](C)CCCC(C)C)[C@@]5(C)CC[C@@H]42)C1)C[C@@H]3O[C@H]1C[C@H](N)[C@H](O)[C@H](C)O1 | Active | Active | Active | Active | Not Active | 16.4 | Not Active | 8.03 | 9.69 | 8.03 | – | – | – | –
COc1cccc2c1C(=O)c1c(O)c3c(c(O)c1C2=O)C[C@@](O)(C(=O)CO)C[C@@H]3O[C@H]1C[C@H](N)[C@H](O)[C@H](C)O1 [DOXORUBICIN] | – | – | – | – | Not Active | 14.7 | Not Active | 7.18 | 4.39 | 11.6 | Not Active | Not Active | Not Active | Drug uptake [11]: Active; Drug uptake [12]: Active; Drug uptake [14]: Active; Drug uptake [15]: Active; Drug uptake [18]: Active
COc1cccc2c1C(=O)c1c(O)c3c(c(O)c1C2=O)C[C@@](O)(C(=O)CO)C[C@@H]3O[C@H]1C[C@H](NC(=O)CCC(=O)NCCCO[C@H]2CC[C@@]3(C)C(=CC[C@H]4[C@@H]5CC[C@H]([C@H](C)CCCC(C)C)[C@@]5(C)CC[C@@H]43)C2)[C@H](O)[C@H](C)O1 | inactive | inactive | inactive | inactive | – | – | – | – | – | – | – | – | – | –
COc1cccc2c1C(=O)c1c(O)c3c(c(O)c1C2=O)C[C@@](O)(C(=O)COC(=O)CCC(=O)NCCCO[C@H]1CC[C@@]2(C)C(=CC[C@H]4[C@@H]5CC[C@H]([C@H](C)CCCC(C)C)[C@@]5(C)CC[C@@H]42)C1)C[C@@H]3O[C@H]1C[C@H](N)[C@H](O)[C@H](C)O1 | Active | Active | Active | Active | Active | 21.6 | Active | 27.9 | 9.94 | 11.2 | Active | Active | Active | Drug uptake [19]: Active; Drug uptake [20]: Active; Drug uptake [21]: Active
